The source of these data is publication PMC8346995, “Synthesis, Characterization, In Vitro Anticancer Potentiality, and Antimicrobial Activities of Novel Peptide–Glycyrrhetinic-Acid-Based Derivatives” (Molecules, 2021).

≈ marks a conversion by molar mass, not a printed value. Residues, ends and D or L forms follow the SMILES beside them. *: point of attachment. X1 = CC1(C(=O)*)CCC2(C)CCC3(C)C(=CC(=O)C4C5(C)CCC(O)C(C)(C)C5CCC43C)C2C1

Data set [1] concerns human breast MCF-7 cancer cell line. The experiment in a line: MTT cytotoxicity assay, breast MCF-7 cancer cell line. Format: cell-based. Particulars: Homo sapiens, MCF7; MTT, mean of three replicates; read-out: IC50 (µg/mL) ± SD MCF-7. The procedure:
(§1) Accordingly, all the newly synthesized GA-based peptides except 1 and 6 were screened for their cytotoxicity against three different human cancer cell lines: MCF-7, HCT-116, and HepG-2 cell lines at different concentrations (10, 5, 2.5, 1.25, and 0.625 µg/mL).
(§2) Human breast MCF-7, colon HCT-116, and liver HepG-2 carcinoma cell line were taken from Vacsera (Giza, Egypt). The culture was retained in RPMI 1640 medium with 1% antibiotic–antimycotic mixture (25 μg/mL amphotericin B, 10,000 μg/mL streptomycin sulfate, and 10,000 U/mL potassium penicillin), 1% L-glutamine, and complemented by 10% heat inactivated fetal bovine serum. […] This experiment was carried out according to the reported MTT assay method, and the absorbance was measured at 595 nm.
Background: Formazan colour is commonly taken as a measure of viable cells.

Data set [2] concerns human colon HCT-116 cancer cell line. The experiment in a line: MTT cytotoxicity assay, colon HCT-116 cancer cell line. Particulars: for IC50: Homo sapiens, HCT-116, read-out: IC50 (µg/mL) ± SD HCT-116. The procedure: as §1, §2
The subject of data set [3] is human normal skin fibroblasts cell line BJ-1. The data set can be described thus: Cytotoxicity against normal skin fibroblasts BJ-1. Format: cell-based. Particulars: human, 10 µg/mL. The procedure:
The frequency and severity of side effects to normal cells at therapeutic levels is one of the most critical factors that distinguish different anticancer drugs from each other. Accordingly, the GA peptides 1–8 were furthermore screened for their cytotoxicity at 10 µg/mL against the human normal skin fibroblasts cell line BJ-1 to determine their safety upon normal cells (Figure 4).

Another data set deals with Bcl-2. The data set can be described thus: Estimation of Bcl-2 level in MCF-7 cells. In kind it is cell-based, human. Particulars: MCF-7 cells treated at IC50 5 μg/mL for 24 h; untreated 7.20 ng/mL. The source says: (§3) The extrinsic pathway (death receptor) and the intrinsic pathway (mitochondrial route) are the main two routes that control a cell during apoptosis. The Bcl-2 protein introduces a central role in tumor growth or suppression the intrinsic apoptotic pathway. Conversely, the pro-apoptotic Bax acts essentially to enhance the process of cell apoptosis. Increasing the level of the anti-apoptotic Bcl-2 within the cancerous cell boosts the cell survival through inhibiting apoptosis. Accordingly, a balance situation between these two proteins determines the cell fate. Furthermore, p53 serves as a transcription factor acting as a tumor suppressor protein. This protein is expressed due to various cellular stresses such as DNA disruption. It is usually mutated in human cancers. The p53 pathway mediates either cell cycle arrest or apoptosis controlling the expression of Bcl-2 and Bax genes. Thus, since compound 5 produced the most promising cytotoxic activity against breast cancer cell lines with a safety profile against the normal cells, it was of interest to study its impact on the regulation of the oncogenic markers Bax, Bcl-2, and p53. […]
The samples and standards having Bcl-2 were estimated as previously mentioned. […] Then, the reaction was terminated by adding acid, and the absorbance was measured at 450 nm.

In a further data set the test system is Bax. The data set can be described thus: Estimation of Bax level in MCF-7 cells. In kind it is cell-based, human. The following applies: MCF-7 cells treated at IC50 for 24 h; untreated 65.50 Pg/mL.
Excerpt: as §3
The levels of Bax protein were evaluated according to the reported method. […] Then, the reaction was terminated by adding acid, and optical density of the produced color was measured at 450 nm.

The next data set relates to Human p53. The experiment in a line: Estimation of human p53 level in MCF-7 cells (ELISA). Format: cell-based.
Excerpt: as §3, with “genes.” for “genes. Thus, since compound 5 produced the most promising cytotoxic activity against breast cancer cell lines with a safety profile against the normal cells, it was of interest to study its impact on the regulation of the oncogenic markers Bax, Bcl-2, and p53.”
Human p53 present in MCF-7 cells was determined; using Human p53 ELISA-Kit (CS0070 Sigma) read using spectrophotometer at 450 nm against untreated control cells (negative control) and doxorubicin (positive control) applying the standard protocols of the manufacturers. […] Then, the reaction was terminated by adding acid, and the absorbance was measured at 450 nm.

A further data set has as its system caspase-3. The data set can be described thus: Human CASP-3 (caspase-3) estimation in MCF-7 cells. In kind it is cell-based. Particulars: MCF-7 cells treated at IC50 for 24 h; untreated 162 ng/mL.
The next data set relates to caspase-7. The data set can be described thus: Human CASP-7 (caspase-7) estimation in MCF-7 cells (ELISA). Format: cell-based. The following applies: for level of caspase-7: MCF-7 cells treated at IC50 for 24 h, untreated 0.3 ng/mL. How it is done: (§4) Caspases are a family of cysteine proteases that are responsible for launching the programmed cell death (apoptosis). […] Cell shrinkage, chromatin condensation, and DNA fragmentation are all apoptosis events, which need the involvement of caspase-7and caspase-3 [48, 54, 56].
The micro-ELISA plate provided in this kit pre-coated with CASP-7-specific antibody. A biotinylated CASP7 antibody and Avidin–horseradish p eroxidase (HRP) conjugate was added. Aspire the excess components. The substrate solution was added. Wells that contain CASP-7, biotinylated detection antibody, and Avidin-HRP conjugate will appear blue in color. The color turns yellow followed the addition of sulfuric acid solution. The optical density (OD) was measured at a wavelength of 450 nm ± 2 nm.

For the next data set, the target named is T1, Tubulin Beta (TUBb) (Homo sapiens, UniProt P07437).
T1 construct: endogenous in cells; host or cells: MCF-7
T1 sequence (P07437 whole entry): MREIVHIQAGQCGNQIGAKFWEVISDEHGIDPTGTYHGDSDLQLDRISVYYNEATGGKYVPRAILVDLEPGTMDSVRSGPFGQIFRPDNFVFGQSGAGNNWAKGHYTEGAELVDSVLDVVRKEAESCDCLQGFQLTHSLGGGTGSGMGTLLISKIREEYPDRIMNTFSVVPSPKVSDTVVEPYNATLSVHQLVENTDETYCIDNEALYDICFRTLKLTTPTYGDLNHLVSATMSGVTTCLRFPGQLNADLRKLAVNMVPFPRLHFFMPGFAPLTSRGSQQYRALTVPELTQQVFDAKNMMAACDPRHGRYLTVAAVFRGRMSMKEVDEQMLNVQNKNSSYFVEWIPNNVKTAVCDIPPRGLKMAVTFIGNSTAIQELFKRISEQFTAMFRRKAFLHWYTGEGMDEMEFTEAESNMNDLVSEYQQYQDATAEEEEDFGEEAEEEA
T1 sequence (P68363 whole entry partner): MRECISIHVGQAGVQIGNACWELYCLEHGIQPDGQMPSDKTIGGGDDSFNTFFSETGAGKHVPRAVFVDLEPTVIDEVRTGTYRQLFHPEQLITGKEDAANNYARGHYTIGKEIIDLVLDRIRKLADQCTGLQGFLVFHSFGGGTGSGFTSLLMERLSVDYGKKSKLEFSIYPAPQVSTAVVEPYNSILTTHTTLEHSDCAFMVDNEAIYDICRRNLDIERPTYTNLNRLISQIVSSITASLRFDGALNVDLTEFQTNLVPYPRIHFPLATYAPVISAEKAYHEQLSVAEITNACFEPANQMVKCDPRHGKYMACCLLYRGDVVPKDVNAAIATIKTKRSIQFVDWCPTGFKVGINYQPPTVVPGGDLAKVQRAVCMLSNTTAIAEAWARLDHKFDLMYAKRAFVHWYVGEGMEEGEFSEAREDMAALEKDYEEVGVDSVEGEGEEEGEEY
The experiment in a line: ELISA kit for Tubulin Beta (TUBb), tubulin polymerization in MCF-7 cells. In kind it is cell-based. Particulars: read-out: inhibition of tubulin polymerization IC50 (tubulin B) (converted).
Excerpt: as §4

Another data set relates to MCF-7 cells. The data set can be described thus: DNA fragmentation through DPA assay in MCF-7 cells. In kind it is cell-based, human. The following applies: treated MCF-7 cells; for percentage of DNA fragmentation: untreated 7.8%. How it is done: as §4
Assessment of DNA fragmentation of the cells was done, as described by the reported method. Briefly, the cells were lysed for 15 min on ice with 0.5% (v/v) Triton X-100, 20 mM EDTA, and […] Tris (pH 8.0). Then, the cells were centrifuged to separate intact chromatin from DNA fragments for 20 min, at 27,000 Xg. Measurement of the amount of DNA was done using a diphenylamine reagent, and the optical density was measured at 600 nm.

The subject of data set [4] is Streptococcus pneumonia RCMB 010010. The experiment in a line: Well diffusion assay, Streptococcus pneumonia. Particulars: Streptococcus pneumonia RCMB 010010, well diffusion. In kind it is cell-based. The procedure:
(§5) The newly synthesized peptides 1–8 (compound 6 was not tested) was evaluated for their antimicrobial activity of against three pathogenic Gram-positive bacteria (Staphylococcus aureus ATCC25923, Streptococcus pneumoniaRCMB 010010, and Micrococcus Luteus), three pathogenic Gram-negative bacteria viz. Escherichia coli ATCC25922, Pseudomonas aeruginosa ATCC7853, and Proteus vulgaris RCMB 010085, and the yeast Candida albicans using the well diffusion method. […] The obtained data were documented for each derivative as the average diameter of the inhibition zones (IZ) in mm for the bacterial or the yeast growth around the discs (Table 2). […] Although Micrococcus Luteus bacteria is a normal commensal of human skin and the upper respiratory tract, it acts as an opportunistic pathogen and has been associated with various diseases including meningitis, septic arthritis, and endocarditis. […] Antimicrobial activity of the tested chemical peptides was determined by the well diffusion method for pathogenic bacteria having Gram-positive bacteria (Staphylococcus aureus ATCC25923, Streptococcus pneumonia, and Micrococcus luteus) and Gram-negative bacteria (Escherichia coli ATCC25922, Pseudomonas aeruginosa ATCC7853, and Proteus sp.) and Candida albicans as human pathogen yeast using the well diffusion method.
On the technique in general: A growth-free zone around the sample is the usual read-out of agar diffusion tests.

Data set [5] relates to Staphylococcus aureus ATCC25923. The data set can be described thus: Well diffusion assay, Staphylococcus aureus. In kind it is cell-based. The procedure:
as §5

The next data set has as its system Micrococcus Luteus. The experiment in a line: Well diffusion assay, Micrococcus Luteus. In kind it is cell-based. How it is done: as §5
Data set [6] concerns Escherichia coli ATCC25922. The experiment in a line: Well diffusion assay, Escherichia coli. In kind it is cell-based. How it is done:
as §5

For data set [7], the system named is Pseudomonas aeruginosa ATCC7853. The experiment in a line: Well diffusion assay, Pseudomonas aeruginosa. In kind it is cell-based. How it is done:
as §5

In data set [8] the test system is Proteus vulgaris RCMB 010085. The experiment in a line: Well diffusion assay, Proteus vulgaris. Format: cell-based. The following applies: Proteus vulgaris RCMB 010085, well diffusion. The procedure:
as §5

In another data set the test system is Candida albicans. The experiment in a line: Well diffusion assay, Candida albicans. In kind it is cell-based. How it is done: as §5
The subject of data set [9] is human liver cancer (HepG-2) cell line. The experiment in a line: MTT cytotoxicity assay, liver HepG-2 cancer cell line. In kind it is cell-based. The following applies: Homo sapiens, HepG2; MTT, mean of three replicates; read-out: IC50 (µg/mL) ± SD HepG-2. The procedure:
as §1, §2

Turning to `CC1(C(=O)NCC(=O)NCC(=O)NCC(=O)NCC(=O)O)CCC2(C)CCC3(C)C(=CC(=O)C4C5(C)CCC(O)C(C)(C)C5CCC43C)C2C1` (stereo not shown) [Compound 5, 1-(10-Hydroxy-2,4a,6a,6b,9,9,12a-heptamethyl-13-oxo-1,2,3,4,4a,5,6,6a,6b,7,8,8a,9,10,11,12,12a,12b,13,14b-icosahydropicen-2-yl)-1,4,7,10-tetraoxo-2,5,8,11-tetraazatridecan-13-oic Acid] (X1-GGGG-OH), the IC50 in data set [1] was 5 ± 0.3 µg/mL (≈ 7.15 µM); in data set [2], 5.2 ± 0.8 µg/mL (≈ 7.44 µM); on Tubulin Beta (TUBb) it was 0.848 µM. Further, in [2] (human, 10 µg/mL), the cytotoxicity percentage is listed as 96.16%. In addition, in data set [3], the “cytotoxic effect on normal cells BJ-1” value is listed as 20%. Besides, the “level of Bcl-2” value in the data set on Bcl-2 is 3.40 ng/mL. In the data set with Bax, the “level of Bax protein” value was 249.9 pg/mL. In the data set on Human p53 (MCF-7, 5 μg/mL, 24 h), the “rise of p53 level versus untreated MCF-7” value is given as “approximately six-fold”. Besides, the “level of p53” value with Human p53 (MCF-7 cells treated at IC50 5 μg/mL for 24 h, untreated 111.07 Pg/mL) was 679.8 pg/mL. In addition, the “level of caspase-3” value in the data set with caspase-3 is given as 477 ng/mL. Besides, the “caspase-7 level elevation versus untreated cells” value with caspase-7 (MCF-7, 5 μg/mL, 24 h) is on record as “about a three-fold”. In addition, in the data set with caspase-7, the “level of caspase-7” value was 0.9 ng/mL. The “DNA fragmentation, times the percent in untreated cells” value in the data set on MCF-7 cells is “about 4.5 fold”. Moreover, the “percentage of DNA fragmentation” value with MCF-7 cells amounted to 35%. Besides, the “Diameter of Inhibition Zone (mm)” value in data set [4] came out at 16 ± 0.12 mm; in data set [5], 15 ± 0.15 mm; in the data set on Micrococcus Luteus, 30 ± 0.15 mm; in data set [6] it was 18 ± 0.23 mm; in data set [7] it was 17 ± 0.16 mm; in [8] it was 10 ± 0.17 mm. For the same molecule, in the data set on Candida albicans, the “Diameter of Inhibition Zone (mm)” value was determined as 13 ± 0.17 mm.

In the case of `COc1cccc2c1C(=O)c1c(O)c3c(c(O)c1C2=O)C[C@@](O)(C(=O)CO)C[C@@H]3O[C@H]1C[C@H](N)[C@H](O)[C@H](C)O1` [DOX, doxorubicin, reference compound], the IC50 in data set [1] turned out to be 7.07 ± 1 µg/mL (≈ 13 µM); in [2] it was 1.09 ± 3 µg/mL (≈ 2.01 µM); in [9], 0.54 ± 1 µg/mL (≈ 0.994 µM). In addition, the “level of Bax protein” value in the data set with Bax was 259.2 pg/mL. The “level of caspase-3” value with caspase-3 is given as 650 ng/mL. For the same molecule, the “level of caspase-7” value with caspase-7 is given as 1.9 ng/mL.

Consider `COc1cc2c(c(OC)c1OC)-c1ccc(OC)c(=O)cc1[C@@H](NC(C)=O)CC2` [colchicine, reference compound], for which the “percentage of DNA fragmentation” value in the data set with MCF-7 cells was 40.7%.
